Here are results for 24 compounds from patent publication US10058534B2, “Benzothiophene derivatives and compositions thereof as selective estrogen receptor degraders” (NOVARTIS AG, priority 2013, dated 2018).

Broadly, the IC50 is the midpoint of a concentration-inhibition curve.

Assay [1] concerns the target ERα (Homo sapiens (Human), UniProt P03372). Put plainly: ERα degradation (MCF7 cells), in-cell Western. The assay is classed as cell-based. Particulars: for IC50: inflection point of the degradation in response to ligand concentration. How it is done:
ERα Degradation (MCF7 Cells)
(§1) The column titled MCF7 IC50 reports the inflection point of the inhibition of transcription in MCF7 cells as described above. Percentage ERα remaining reports the remaining ERα protein measured at 10 μM concentration of the ligand as described above. The column ERα IC50 reports the inflection point of the degradation in response to the ligand concentration.

The target of assay [2] is ER (endogenous, MCF7 cells) (Homo sapiens (Human), UniProt P03372). Put plainly: ER transcription assay (MCF7 cells), ERE-luciferase reporter. The assay is classed as cell-based.
Excerpt: ER Transcription Assay (MCF7 Cells)
The ER transcription assay is a reporter assay that is based on the ability of ER to induce transcription from a luciferase reporter gene containing estrogen response elements (EREs) in the promoter/enhancer region. When the reporter gene is transfected in MCF7 cells (containing endogenous ER), transcription is reflected by the level of luciferase expression.
A day before transfection, cells are split into a T75 flask at a cell density of 300,000 cells/mL (10 mL total) and allowed to attach overnight in a humidified CO2 incubator at 37° C.
Approximately 20 ug DNA is mixed in OptiMEM (Invitrogen) to a total volume of 650 μL. Following incubation, the OptiMEM-DNA mixture is added to the OptiMEM-Lipofectin mix and incubated for 15 minutes at 37° C. The DNA-Lipofectin mixture is then added directly to the T75 flask and the flask is returned to the incubator.
Normally, DMSO (used as a vehicle) is included to achieve a final concentration of 0.1% when added to the cells. Transfected cells are trypsinized, resuspended in DMEM/F12/10% charcoal-stripped serum and added to the 96-well plate at 25,000 cells/well in 90 μL of media. The plate is then returned to the incubator for 24 hours.
After incubation with compounds for 24 hours, Firefly and Renilla luciferase activities are measured to determine ER transcriptional activity. Media is removed from 96-well plates by decanting and blotting on paper towels.
One second total read time after a one second delay.
One second total read time after one second delay. If Firefly luciferase signal is high, Renilla assay must be done an hour after the Firefly assay due to incomplete squelching of Firefly signal.
as §1

Setting [3] is: remaining ERα protein at 10 μM ligand, MCF7 cells, relative to DMSO control.
[4] abbreviates: inflection point of the inhibition of transcription in MCF7 cells, 0.1 nM estradiol, 24 hours, read-out: MCF7 IC50.

Structures can show the parent of a compound that is named as a salt. Where two headings read alike, the source gives them in different places.

Sequence of ER (endogenous, MCF7 cells) (P03372 whole entry): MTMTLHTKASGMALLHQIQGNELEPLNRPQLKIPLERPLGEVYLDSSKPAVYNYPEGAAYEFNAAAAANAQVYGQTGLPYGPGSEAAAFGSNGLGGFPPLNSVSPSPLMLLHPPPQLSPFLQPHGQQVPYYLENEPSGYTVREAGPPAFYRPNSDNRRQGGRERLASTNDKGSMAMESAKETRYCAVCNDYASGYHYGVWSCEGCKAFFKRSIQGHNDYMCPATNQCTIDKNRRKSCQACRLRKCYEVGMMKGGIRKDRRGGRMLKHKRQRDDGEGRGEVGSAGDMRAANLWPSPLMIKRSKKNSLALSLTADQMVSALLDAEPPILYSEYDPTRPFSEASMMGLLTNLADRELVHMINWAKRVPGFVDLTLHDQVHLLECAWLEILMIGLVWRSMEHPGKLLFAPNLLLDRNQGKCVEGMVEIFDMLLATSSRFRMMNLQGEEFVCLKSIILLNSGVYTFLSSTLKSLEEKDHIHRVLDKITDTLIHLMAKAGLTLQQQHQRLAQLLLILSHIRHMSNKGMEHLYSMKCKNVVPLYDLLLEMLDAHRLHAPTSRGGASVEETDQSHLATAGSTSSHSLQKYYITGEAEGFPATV
Sequence of ERα (P03372 whole entry): as above

For the compound `CC(C)c1ccccc1-c1sc2cc(O)ccc2c1Nc1ccc(/C=C/C(=O)O)cc1` [Example 118, (E)-3-(4-((6-hydroxy-2-(2-isopropylphenyl)benzo [b]thiophen-3-yl)amino)phenyl)acrylic acid], the IC50 stood at 2.8 nM in assay [1] (MCF7 cells) and 68 nM in assay [2] (setting [4]). The “% ERα remaining” value in assay [1] (setting [3]) stood at 14%.

Turning to `O=C(O)/C=C/c1ccc(Oc2c(-c3ccccc3CN3CCCC3)sc3cc(O)ccc23)cc1` [Example 92, (E)-3-(4-((6-hydroxy-2-(2-(pyrrolidin-1-ylmethyl)phenyl)benzo [b]thiophen-3-yl)oxy)phenyl)acrylic acid], the “% ERα remaining” value in assay [1] (setting [3]) stood at 16%. Besides, in assay [2] (setting [4]), the IC50 was 29 nM.

As to `CC/C(=C\c1ccc(Oc2c(-c3ccc(O)cc3)sc3cc(O)ccc23)cc1)C(=O)O` [Example 114, (E)-2-(4-((6-hydroxy-2-(4-hydroxyphenyl)benzo [b]thiophen-3-yl)oxy)benzylidene) butanoic acid], the IC50 is 6.4 nM in assay [1] (MCF7 cells) and 216 nM in assay [2] (setting [4]). Besides, the “% ERα remaining” value in assay [1] (setting [3]) is listed as 35%.

In the case of `CC(C)c1ccccc1-c1sc2cc(O)ccc2c1Oc1ccc(/C=C/c2nnc(C3CC3)o2)cc1` [Example 104, (E)-3-(4-(2-(5-cyclopropyl-1,3,4-oxadiazol-2-yl)vinyl)phenoxy)-2-(2-isopropylphenyl)benzo [b]thiophen-6-ol], the “% ERα remaining” value in assay [1] (setting [3]) was 29%. Also, the IC50 in assay [2] (setting [4]) amounted to 32 nM.

Consider `CCCc1nnc(/C=C/c2ccc(Oc3c(-c4ccccc4C(C)C)sc4cc(O)ccc34)cc2)[nH]1` [Example 107, (E)-2-(2-isopropylphenyl)-3-(4-(2-(5-propyl-4H-1,2,4-triazol-3-yl)vinyl)phenoxy)benzo [b]thiophen-6-ol], for which the values for the IC50 in assay [1] (MCF7 cells) and in assay [2] (setting [4]) were 4 nM and 66 nM, respectively. Further, the “% ERα remaining” value in assay [1] (setting [3]) worked out at 29%.

Consider `CCOC(=O)/C=C/c1ccc(Oc2c(-c3ccc(O)cc3)sc3cc(O)ccc23)cc1OC` [Example 43, (E)-ethyl 3-(4-((6-hydroxy-2-(4-hydroxyphenyl)benzo[b]thiophen-3-yl)oxy)-2-methoxyphenyl)acrylate], for which the “% ERα remaining” value in assay [1] (setting [3]) came to 41%. Further, in assay [2] (setting [4]), the IC50 was determined as 10000 nM.

For the compound `CC(C)c1ccccc1-c1sc2cc(OCN3C(=O)c4ccccc4S3(=O)=O)ccc2c1Oc1ccc(/C=C/C(=O)O)cc1` [Example 84, (E)-3-(4-((6-((1,1-dioxido-3-oxobenzo [d]isothiazol-2(3H)-yl)methoxy)-2-(2-isopropylphenyl)benzo[b]thiophen-3-yl)oxy)phenyl)acrylic acid], the “% ERα remaining” value in assay [1] (setting [3]) came out at 12%. Also, the half-inhibitory concentration (IC50) in assay [2] (setting [4]) was found to be 44 nM.

Turning to `O=C(O)/C=C/c1ccc(Oc2c(-c3ccccc3CC(F)(F)F)sc3cc(O)ccc23)cc1` [Example 109, (E)-3-(4-((6-hydroxy-2-(2-(2,2,2-trifluoroethyl)phenyl)benzo[b]thiophen-3-yl)oxy)phenyl)acrylic acid], the IC50 is 0.2 nM in assay [1] (MCF7 cells) and 12 nM in assay [2] (setting [4]). Further, the “% ERα remaining” value in assay [1] (setting [3]) is listed as 16%.

`N#CCc1ccccc1-c1sc2cc(O)ccc2c1Oc1ccc(/C=C/C(=O)O)cc1` [Example 94, (E)-3-(4-((2-(2-(cyanomethyl)phenyl)-6-hydroxybenzo[b]thiophen-3-yl)oxy)phenyl)acrylic acid]: the “% ERα remaining” value in assay [1] (setting [3]) worked out at 20%. The IC50 in assay [2] (setting [4]) amounted to 86 nM.

Regarding `C[C@@H](O)c1ccccc1-c1sc2cc(O)ccc2c1Oc1ccc(/C=C/C(=O)O)cc1` [Example 116, (R,E)-3-(4-((6-hydroxy-2-(2-(1-hydroxyethyl)phenyl)benzo[b]thiophen-3-yl)oxy)phenyl)acrylic acid], the IC50 in assay [1] (MCF7 cells) is 12 nM; in assay [2] (setting [4]), 306 nM. The “% ERα remaining” value in assay [1] (setting [3]) is on record as 24%.

Turning to `CC(C)c1ccccc1-c1sc2cc(OC(=O)[C@@H](N)C(C)C)ccc2c1Oc1ccc(/C=C/C(=O)O)cc1` [Example 85, (S,E)-3-(4-((6-((2-amino-3-methylbutanoyl)oxy)-2-(2-isopropylphenyl)benzo [b]thiophen-3-yl)oxy)phenyl)acrylic acid hydrochloride], in assay [1], the “% ERα remaining” value amounted to 12%. In assay [2] (read-out: MCF7 IC50), the IC50 was determined as 7 nM.

For the compound `CC(C)c1ccccc1-c1sc2cc(O)ccc2c1Oc1ccc(CCC(=O)O)cc1` [Example 93, 3-(4-((6-hydroxy-2-(2-isopropylphenyl)benzo [b]thiophen-3-yl)oxy)phenyl)propanoic acid], the IC50 worked out at 1.6 nM in assay [1] (MCF7 cells) and 72 nM in assay [2] (setting [4]). Moreover, the “% ERα remaining” value in assay [1] (setting [3]) was found to be 25%.

On to `CC(C)c1ccccc1-c1sc2c(F)c(O)ccc2c1Oc1ccc(/C=C/C(=O)O)cc1` [Example 101, (E)-3-(4-((7-fluoro-6-hydroxy-2-(2-isopropylphenyl)benzo [b]thiophen-3-yl)oxy)phenyl)acrylic acid], for which the IC50 in assay [1] (MCF7 cells) was found to be 0.2 nM; in assay [2] (setting [4]) it was 4.2 nM. For the same compound, in assay [1] (setting [3]), the “% ERα remaining” value was 18%.

Regarding `CNC(=O)/C=C/c1ccc(Oc2c(-c3ccc(O)cc3)sc3cc(O)ccc23)cn1` [Example 71, (E)-3-(5-((6-hydroxy-2-(4-hydroxyphenyl)benzo[b]thiophen-3-yl)oxy)pyridin-2-yl)-N-methylacrylamide], in assay [1] (setting [3]), the “% ERα remaining” value worked out at 41%. Besides, in assay [2] (setting [4]), the IC50 worked out at 269 nM.

In the case of `Cc1cccc(C(C)C)c1-c1sc2cc(O)ccc2c1Oc1ccc(/C=C/C(=O)O)cc1` [Example 124, (E)-3-(4-((6-hydroxy-2-(2-isopropyl-6-methylphenyl)benzo[b]thiophen-3-yl)oxy)phenyl)acrylic acid], the IC50 in assay [1] (MCF7 cells) was 1.4 nM; in assay [2] (setting [4]), 114 nM. Besides, the “% ERα remaining” value in assay [1] (setting [3]) came out at 10%.

With `CC(C)c1ccccc1-c1sc2cc(OC(=O)C(C)(C)C)ccc2c1Oc1ccc(/C=C/C(=O)O)cc1` [Example 135, (E)-3-(4-((2-(2-isopropylphenyl)-6-(pivaloyloxy)benzo[b]thiophen-3-yl)oxy)phenyl)acrylic acid], the “% ERα remaining” value in assay [1] (setting [3]) is 19%. In addition, in assay [2] (setting [4]), the IC50 is 61 nM.

In the case of `CC(F)c1ccccc1-c1sc2cc(O)ccc2c1Oc1ccc(/C=C/C(=O)O)cc1` (stereo not shown) [Example 111, (E)-3-(4-((2-(2-(1-fluoroethyl)phenyl)-6-hydroxybenzo[b]thiophen-3-yl)oxy)phenyl)acrylic acid], the IC50 came to 0.3 nM in assay [1] (MCF7 cells) and 25 nM in assay [2] (setting [4]). For the same compound, the “% ERα remaining” value in assay [1] (setting [3]) is given as 17%.

With `C#Cc1ccccc1-c1sc2cc(O)ccc2c1Oc1ccc(/C=C/C(=O)O)cc1` [Example 132, (E)-3-(4-((2-(2-ethynylphenyl)-6-hydroxybenzo[b]thiophen-3-yl)oxy)phenyl)acrylic acid], the “% ERα remaining” value in assay [1] (setting [3]) came to 16%. In addition, the IC50 in assay [2] (setting [4]) was found to be 890 nM.

Take `CC(=O)/C=C/c1ccc(Oc2c(-c3ccc(C(F)(F)F)cc3)sc3cc(O)ccc23)cc1` [Example 121, (E)-4-(4-((6-hydroxy-2-(4-(trifluoromethyl)phenyl)benzo[b]thiophen-3-yl)oxy)phenyl)but-3-en-2-one]: in assay [1] (setting [3]), the “% ERα remaining” value worked out at 56%. Also, the IC50 in assay [2] (setting [4]) stood at 214 nM.

As for `COC(=O)/C=C/c1ccc(Oc2c(-c3ccc(O)c(C)c3)sc3cc(O)ccc23)cc1` [Example 41, (E)-methyl 3-(4-((6-hydroxy-2-(4-hydroxy-3-methylphenyl)-benzo[b]thiophen-3-yl)oxy)phenyl)acrylate], the “% ERα remaining” value in assay [1] (setting [3]) came out at 32%. The concentration for half-maximal inhibition (IC50) in assay [2] (setting [4]) is 10000 nM.

Regarding `CC(C)c1ccccc1-c1sc2cc(O)ccc2c1Oc1ccc(/C=C/C(=O)O)nc1` [Example 117, (E)-3-(5-((6-hydroxy-2-(2-isopropylphenyl)benzo [b]thiophen-3-yl)oxy)pyridin-2-yl)acrylic acid], in assay [1] (setting [3]), the “% ERα remaining” value came out at 16%. Also, the IC50 in assay [2] (setting [4]) was found to be 54 nM.

Regarding `COC(=O)/C=C/c1ccc(Oc2c(-c3ccccc3C(C)C)sc3cc(O)ccc23)cc1` [Example 45, (E)-methyl 3-(4-((6-hydroxy-2-(2-isopropylphenyl)benzo[b]thiophen-3-yl)oxy)phenyl)acrylate], the “% ERα remaining” value in assay [1] (setting [3]) was determined as 30%. For the same compound, in assay [2] (setting [4]), the IC50 was 23 nM.

As for `O=C(O)CCCc1ccc(Oc2c(-c3ccc(O)cc3)sc3cc(O)ccc23)cc1` [reference compound], the “ER Percentage remaining” value in assay [1] (degradation potential, comparison of linker length between phenyl and -C(O)OH) is 55 Percentage. Moreover, in assay [2] (antagonist activity, comparison of linker length between phenyl and -C(O)OH, read-out: SERD IC50 MCF7), the IC50 came out at 10000 nM.

Turning to `CC(C)c1ncoc1-c1sc2cc(O)ccc2c1Oc1ccc(/C=C/C(=O)O)cc1` [Example 115, (E)-3-(4-((6-hydroxy-2-(4-isopropyloxazol-5-yl)benzo[b]thiophen-3-yl)oxy)phenyl)acrylic acid], the IC50 in assay [1] (MCF7 cells) is 5.3 nM; in assay [2] (setting [4]), 267 nM. In assay [1] (setting [3]), the “% ERα remaining” value came out at 15%.
